According to PubChem BioAssay (NCI):
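48-hour exposure; five concentrations; linearly interpolated endpoints. TGI: total growth inhibition.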

Key:
Assay in all cases: inhibition of tumour cell growth, NCI panel, 48 h
ACHN renal = system: ACHN renal
COLO 205 colon = system: COLO 205 colon
MALME-3M melanoma = system: MALME-3M melanoma
NCI-H522 lung = system: NCI-H522 lung
OVCAR-8 ovarian = system: OVCAR-8 ovarian
SN12C renal = system: SN12C renal
SNB-75 CNS = system: SNB-75 CNS
DMS 273 small cell lung = system: DMS 273 small cell lung
HOP-18 NSCLC = system: HOP-18 NSCLC
LXFL 529 NSCLC = system: LXFL 529 NSCLC
XF 498 CNS = system: XF 498 CNS
DMS 114 small cell lung = system: DMS 114 small cell lung

OC(c1ccc(-c2ccccc2)cc1)C(F)(F)c1nc2ccccc2o1 (stereo not drawn)
TGI (ACHN renal): > 100 µM
TGI (COLO 205 colon): > 100 µM
TGI (MALME-3M melanoma): > 100 µM
TGI (NCI-H522 lung): > 100 µM
TGI (OVCAR-8 ovarian): > 93.1 µM
TGI (SN12C renal): > 100 µM
TGI (SNB-75 CNS): > 100 µM

Cc1ccc(N=Nc2c(O)c(C(=O)Nc3ccccc3)cc3ccccc23)c([N+](=O)[O-])c1
TGI (ACHN renal): > 100 µM
TGI (COLO 205 colon): > 100 µM
TGI (MALME-3M melanoma): > 100 µM
TGI (NCI-H522 lung): > 100 µM
TGI (OVCAR-8 ovarian): > 100 µM
TGI (SN12C renal): > 100 µM
TGI (SNB-75 CNS): > 100 µM

CCC[C@H](C)C[C@H](C)C[C@H](C)/C=C(\C)[C@@H](O)[C@@H](C)C(=O)CC
TGI (ACHN renal): 39 µM
TGI (MALME-3M melanoma): 33.6 µM
TGI (NCI-H522 lung): 36.4 µM
TGI (OVCAR-8 ovarian): 39.4 µM
TGI (SN12C renal): 35.5 µM
TGI (SNB-75 CNS): > 100 µM

CNc1ccc(N)cc1C(=O)N1CCC[C@H]1CO
TGI (ACHN renal): > 100 µM
TGI (COLO 205 colon): > 100 µM
TGI (MALME-3M melanoma): > 100 µM
TGI (NCI-H522 lung): > 100 µM
TGI (OVCAR-8 ovarian): > 100 µM
TGI (SN12C renal): > 100 µM
TGI (SNB-75 CNS): > 100 µM

COC(=O)c1cnn2c1n[n+]([O-])c1ccccc12
TGI (ACHN renal): > 100 µM
TGI (COLO 205 colon): > 100 µM
TGI (MALME-3M melanoma): > 100 µM
TGI (NCI-H522 lung): > 100 µM
TGI (OVCAR-8 ovarian): > 100 µM
TGI (SN12C renal): > 100 µM
TGI (SNB-75 CNS): > 100 µM

FC(F)(F)c1ccc2nc(Sc3ccccn3)cnc2c1
TGI (ACHN renal): 52.9 µM
TGI (COLO 205 colon): > 100 µM
TGI (MALME-3M melanoma): > 100 µM
TGI (NCI-H522 lung): 43.7 µM
TGI (OVCAR-8 ovarian): > 100 µM
TGI (SN12C renal): > 100 µM
TGI (SNB-75 CNS): 96.1 µM

COc1cc([C@@H]2c3cc(O)c(OC)cc3C=C(C(N)=O)[C@H]2C(N)=O)ccc1O
TGI (ACHN renal): > 100 µM
TGI (COLO 205 colon): > 100 µM
TGI (MALME-3M melanoma): > 100 µM
TGI (NCI-H522 lung): > 100 µM
TGI (OVCAR-8 ovarian): > 100 µM
TGI (SN12C renal): > 100 µM
TGI (SNB-75 CNS): > 100 µM

O=[As](O)(O)c1ccc(N=Nc2ccc(O)cc2)cc1
TGI (ACHN renal): > 100 µM
TGI (COLO 205 colon): > 100 µM
TGI (MALME-3M melanoma): > 100 µM
TGI (NCI-H522 lung): > 100 µM
TGI (OVCAR-8 ovarian): > 100 µM
TGI (SN12C renal): > 100 µM
TGI (SNB-75 CNS): > 100 µM

C[C@H]1C=C2[C@@H]3CC(C)(C(=O)O)CC[C@]3(C)CC[C@]2(C)[C@]2(C)CC[C@H]3C(C)(C)[C@@H](OC(=O)c4cccc5c(=O)c6ccccc6[nH]c45)CC[C@]3(C)[C@@H]12 (stereo partly drawn)
TGI (ACHN renal): > 100 µM
TGI (COLO 205 colon): > 100 µM
TGI (MALME-3M melanoma): > 100 µM
TGI (NCI-H522 lung): > 100 µM
TGI (OVCAR-8 ovarian): > 100 µM
TGI (SN12C renal): > 100 µM
TGI (SNB-75 CNS): > 100 µM

COC(=O)c1c(OC(C)=O)ccc2c1c1c(OC(C)=O)c3ccccc3c(OC(C)=O)c1n2Cc1ccccc1
TGI (ACHN renal): 47.1 µM
TGI (COLO 205 colon): 15.6 µM
TGI (MALME-3M melanoma): 22.6 µM
TGI (NCI-H522 lung): 3.4 µM
TGI (OVCAR-8 ovarian): > 50 µM
TGI (SN12C renal): > 50 µM
TGI (SNB-75 CNS): 6.61 µM

CCOc1ccc(-n2nnc3c(N)nc(N)nc32)cc1
TGI (ACHN renal): > 100 µM
TGI (COLO 205 colon): > 100 µM
TGI (MALME-3M melanoma): > 100 µM
TGI (NCI-H522 lung): > 100 µM
TGI (OVCAR-8 ovarian): > 100 µM
TGI (SN12C renal): > 100 µM
TGI (SNB-75 CNS): > 100 µM

N#C/C(=C\c1c[nH]c2ccccc12)C(=O)c1ccc(O)c(O)c1
TGI (ACHN renal): > 94.3 µM
TGI (COLO 205 colon): > 67.7 µM
TGI (DMS 273 small cell lung): > 100 µM
TGI (HOP-18 NSCLC): 93.5 µM
TGI (LXFL 529 NSCLC): > 100 µM
TGI (MALME-3M melanoma): > 78.8 µM
TGI (NCI-H522 lung): > 93 µM
TGI (OVCAR-8 ovarian): > 100 µM
TGI (SN12C renal): > 91.5 µM
TGI (SNB-75 CNS): > 100 µM
TGI (XF 498 CNS): > 100 µM

CCOC(=O)CSc1nnc(C(Sc2nc(-c3ccccc3)c(-c3ccccc3)[nH]2)C(C)C)n1-c1ccccc1 (stereo not drawn)
TGI (ACHN renal): > 31.6 µM
TGI (COLO 205 colon): 28.6 µM
TGI (DMS 114 small cell lung): > 10 µM
TGI (DMS 273 small cell lung): > 10 µM
TGI (LXFL 529 NSCLC): > 10 µM
TGI (MALME-3M melanoma): 28.3 µM
TGI (NCI-H522 lung): 26.9 µM
TGI (OVCAR-8 ovarian): > 31.6 µM
TGI (SN12C renal): 26.1 µM
TGI (SNB-75 CNS): > 10 µM

CC(C)(C)OC(=O)NCCC1CN(C(=O)c2ccccc2)c2ccccc21 (stereo not drawn)
TGI (ACHN renal): > 100 µM
TGI (COLO 205 colon): 40 µM
TGI (MALME-3M melanoma): 80.9 µM
TGI (NCI-H522 lung): 64.2 µM
TGI (OVCAR-8 ovarian): 67.8 µM
TGI (SNB-75 CNS): 75.2 µM

CC(NC(C)(C)C)C(=O)c1cccc(Cl)c1 (stereo not drawn)
TGI (ACHN renal): > 100 µM
TGI (COLO 205 colon): > 100 µM
TGI (DMS 114 small cell lung): > 100 µM
TGI (DMS 273 small cell lung): > 100 µM
TGI (LXFL 529 NSCLC): > 100 µM
TGI (MALME-3M melanoma): > 100 µM
TGI (NCI-H522 lung): > 100 µM
TGI (OVCAR-8 ovarian): > 100 µM
TGI (SN12C renal): > 100 µM
TGI (SNB-75 CNS): > 100 µM
TGI (XF 498 CNS): > 100 µM

CC(C)=C/C=C1/CS(=O)(=O)C=C1C
TGI (ACHN renal): > 100 µM
TGI (COLO 205 colon): > 100 µM
TGI (MALME-3M melanoma): > 100 µM
TGI (NCI-H522 lung): > 100 µM
TGI (OVCAR-8 ovarian): > 100 µM
TGI (SN12C renal): > 100 µM
TGI (SNB-75 CNS): > 100 µM

CC1OC(OC2C(OC(=O)[C@@H]3CC(C)(C)C[C@H]4C5=CC[C@@H]6[C@@]7(C)C[C@H](O)[C@H](OC8OC(CO)C(O)C(O)C8O)[C@@](C)(CO)[C@@H]7[C@H](O)C[C@@]6(C)[C@]5(C)CC[C@@]34C)OCC(O)C2O)C(O)C(O)C1O (stereo partly drawn)
TGI (ACHN renal): > 7.5 µM
TGI (COLO 205 colon): > 7.5 µM
TGI (MALME-3M melanoma): > 7.5 µM
TGI (NCI-H522 lung): > 7.5 µM
TGI (OVCAR-8 ovarian): > 7.5 µM
TGI (SN12C renal): > 7.5 µM
TGI (SNB-75 CNS): > 7.5 µM

CCN(CC)CCNCc1cc(Cl)cc2c1OCOC2
TGI (ACHN renal): > 10 µM
TGI (COLO 205 colon): > 10 µM
TGI (MALME-3M melanoma): > 10 µM
TGI (NCI-H522 lung): > 10 µM
TGI (OVCAR-8 ovarian): > 10 µM
TGI (SN12C renal): > 10 µM
TGI (SNB-75 CNS): > 10 µM

O=C1NC(=S)N(c2ccccc2)C1=O
TGI (ACHN renal): > 100 µM
TGI (COLO 205 colon): > 100 µM
TGI (MALME-3M melanoma): > 100 µM
TGI (NCI-H522 lung): > 100 µM
TGI (OVCAR-8 ovarian): > 100 µM
TGI (SN12C renal): > 100 µM
TGI (SNB-75 CNS): > 100 µM

COc1ccc(/C=C2\CN(C)C/C(=C\c3ccc(OC)c(OC)c3OC)C2=O)c(OC)c1OC
TGI (ACHN renal): 0.565 µM
TGI (COLO 205 colon): 0.287 µM
TGI (MALME-3M melanoma): 0.333 µM
TGI (NCI-H522 lung): 0.473 µM
TGI (OVCAR-8 ovarian): 0.343 µM
TGI (SN12C renal): 0.449 µM
TGI (SNB-75 CNS): 2.64 µM

O=C(/C=C/c1csc(-c2ccccc2)n1)NCc1ccc(C(=O)NCc2ccccc2)cc1
TGI (ACHN renal): > 100 µM
TGI (COLO 205 colon): > 100 µM
TGI (MALME-3M melanoma): > 100 µM
TGI (NCI-H522 lung): > 100 µM
TGI (OVCAR-8 ovarian): > 100 µM
TGI (SN12C renal): > 100 µM
TGI (SNB-75 CNS): 60.5 µM

Brc1c(C#CCC2CCCCC2)ccc(C#CCC2CCCCC2)c1Br
TGI (ACHN renal): > 100 µM
TGI (COLO 205 colon): > 100 µM
TGI (MALME-3M melanoma): > 100 µM
TGI (NCI-H522 lung): > 100 µM
TGI (OVCAR-8 ovarian): > 100 µM
TGI (SN12C renal): > 100 µM
TGI (SNB-75 CNS): > 100 µM

COc1cc(/C=C(/C#N)C(N)=O)ccc1O
TGI (COLO 205 colon): > 100 µM
TGI (DMS 114 small cell lung): > 100 µM
TGI (DMS 273 small cell lung): > 100 µM
TGI (HOP-18 NSCLC): > 100 µM
TGI (MALME-3M melanoma): > 100 µM
TGI (NCI-H522 lung): > 100 µM
TGI (OVCAR-8 ovarian): > 100 µM
TGI (SN12C renal): > 100 µM
TGI (SNB-75 CNS): > 85.6 µM
TGI (XF 498 CNS): > 100 µM
